Patent US20120190687A1, “Pyrazinylpyrazoles” (Bayer CropScience Ag, priority 2009, published 2012)

Assays:
[1] = logP by reversed-phase HPLC (EEC Directive 79/831 Annex V.A8); format: physicochemical
Description: [table] The calibration is effected with unbranched alkan-2-ones (having 3 to 16 carbon atoms) with known log P values (log P values determined on the basis of the retention times by linear interpolation between two successive alkanones).

Tetranychus urticae = assay: Tetranychus test, OP-resistant (TETRUR spray treatment); format: in vivo; settings: 500 g/ha, bean leaf discs, after 6 days
Method: Tetranychus Test, OP-resistant (TETRUR Spray Treatment)
Solvent: 78.0 parts by weight of acetone • • 1.5 parts by weight of dimethylformamide
Emulsifier: 0.5 part by weight of alkylaryl polyglycol ether
To prepare an appropriate active ingredient preparation, 1 part by weight of active ingredient is mixed with the stated amounts of solvent and emulsifier, and the concentrate is diluted with emulsifier-containing water to the desired concentration. Discs of bean leaves (Phaseolus vulgaris) infested by all stages of the red spider mite (Tetranychus urticae) are sprayed with an active ingredient preparation of the desired concentration. After 6 days, the efficacy in % is determined. 100% means that all spider mites have been killed; 0% means that none of the spider mites have been killed.

Phaedon cochleariae = assay: Phaedon test (PHAECO spray treatment); format: in vivo; settings: 500 g/ha, Chinese cabbage discs, after 7 days
Method: Phaedon Test ([…] Spray Treatment) Solvent: 78.0 parts by weight of acetone • • 1.5 parts by weight of dimethylformamide Emulsifier: 0.5 part by weight of alkylaryl polyglycol ether To prepare an appropriate active ingredient preparation, 1 part by weight of active ingredient is mixed with the stated amounts of solvent and emulsifier, and the concentrate is diluted with emulsifier-containing water to the desired concentration. Discs of Chinese cabbage (Brassica pekinensis) are sprayed with an active ingredient preparation of the desired concentration and, after drying, populated with larvae of the mustard beetle (Phaedon cochleariae). After 7 days, the efficacy in % is determined. 100% means that all beetle larvae have been killed; 0% means that none of the beetle larvae have been killed.

Spodoptera frugiperda = Spodoptera frugiperda test (SPODFR spray treatment); format: in vivo; settings: 500 g/ha, maize leaf discs, after 7 days
Method: Spodoptera frugiperda Test (SPODFR Spray Treatment) Solvent: 78.0 parts by weight of acetone • • 1.5 parts by weight of dimethylformamide Emulsifier: 0.5 part by weight of alkylaryl polyglycol ether To prepare an appropriate active ingredient preparation, 1 part by weight of active ingredient is mixed with the stated amounts of solvent and emulsifier, and the concentrate is diluted with emulsifier-containing water to the desired concentration. Discs of maize leaves (Zea mays) are sprayed with an active ingredient preparation of the desired concentration and, after drying, populated with caterpillars of the armyworm (Spodoptera frugiperda). After 7 days, the efficacy in % is determined. 100% means that all caterpillars have been killed; 0% means that none of the caterpillars have been killed.

[2] = * LC-MS, acidic range, pH 2.7, 0.1% aqueous formic acid / acetonitrile
[3] = ** acidic range, pH 2.3, 0.1% aqueous phosphoric acid / acetonitrile

| log P [1, 2] | SMILES | efficacy (Phaedon cochleariae) | further results |
| --- | --- | --- | --- |
| 4.28* | CN(C)c1nccnc1-n1nc(C(F)(F)F)c(-c2cc(Cl)cc(C(F)(F)F)c2)c1N [Ex. 25] | – | – |
| 4.21* | CCOc1cc(-c2c(C(F)(F)F)nn(-c3nccnc3OC)c2N)cc(Cl)c1OCC(F)(F)F [Ex. 144] | 100% | efficacy (Tetranychus urticae): 100%; efficacy (Spodoptera frugiperda): 100% |
| 4.02* | Nc1c(-c2ccc(Cl)c(Cl)c2)c(C(F)(F)F)nn1-c1nccnc1Cl [Ex. 1] | – | log P [1, 3]: 3.99**; |
| 4.28* | Nc1c(-c2cc(Cl)cc(C(F)(F)F)c2)c(C(F)(F)F)nn1-c1nccnc1Cl [Ex. 16] | – | – |
| 3.29* | C[S+]([O-])c1nccnc1-n1nc(C(F)(F)F)c(-c2cc(Cl)cc(C(F)(F)F)c2)c1N (stereo not shown) [Ex. 29] | – | – |
| 4.32* | Cc1nccnc1-n1nc(C(F)(F)F)c(-c2cc(Cl)cc(C(F)(F)F)c2)c1N [Ex. 23] | 100% | efficacy (Tetranychus urticae): 100% |
| 3.47* | COc1nccnc1-n1nc(C(F)(F)F)c(-c2cc(F)c(OC)c(Cl)c2)c1N [Ex. 124] | 100% | efficacy (Tetranychus urticae): 90%; log P ([1]; *** LC-MS, neutral range, pH 7.8, 0.001 molar aqueous ammonium hydrogencarbonate / acetonitrile): 3.5***;; efficacy (Spodoptera frugiperda): 100% |
| 3.22* | COc1nccnc1-n1nc(C(F)(F)C(F)F)c(-c2cc(Cl)c3c(c2)CCO3)c1N [Ex. 66] | 100% | efficacy (Tetranychus urticae): 90%; efficacy (Spodoptera frugiperda): 100% |
| 3.58* | COc1cc(-c2c(C(F)(F)C(F)F)nn(-c3nccnc3OC)c2N)cc(C(F)(F)F)c1OC [Ex. 157] | 100% | efficacy (Tetranychus urticae): 100%; efficacy (Spodoptera frugiperda): 100% |
| 4.27* | Nc1c(-c2cc(Cl)cc(C(F)(F)F)c2)c(C(F)(F)F)nn1-c1nccnc1Br [Ex. 129] | – | – |
| 3.88* | COc1cc(-c2c(C(F)(F)F)nn(-c3nccnc3OC)c2N)cc(Cl)c1OCC(F)(F)F [Ex. 134] | 100% | efficacy (Spodoptera frugiperda): 100% |
| 4.28* | COc1cc(-c2c(C(F)(F)F)nn(-c3nccnc3OC)c2N)cc(C(F)(F)F)c1OC(C)C [Ex. 126] | – | – |
| 4.51* | CNc1c(-c2cc(Cl)cc(C(F)(F)F)c2)c(C(F)(F)F)nn1-c1nccnc1OC [Ex. 106] | – | – |
| 5.51* | COc1nccnc1-n1nc(C(F)(F)F)c(-c2cc(Cl)cc(C(F)(F)F)c2)c1NCc1ccc(Cl)cc1 [Ex. 39] | – | – |
| 3.66* | COc1nccnc1-n1nc(C(F)(F)F)c(-c2cc(F)c(Cl)cc2Cl)c1N [Ex. 166] | 100% | efficacy (Tetranychus urticae): 90% |
| 3.68* | CCOc1cc(-c2c(C(F)(F)F)nn(-c3nccnc3OC)c2N)ccc1OCC(F)(F)F [Ex. 127] | 100% | efficacy (Tetranychus urticae): 90% |
| 3.19* | COc1nccnc1-n1nc(C(F)(F)F)c(-c2ccc(N(C)C)c(Cl)c2)c1N [Ex. 122] | 100% | efficacy (Spodoptera frugiperda): 100% |
| 4.14* | COc1nccnc1-n1nc(C(F)(F)F)c(-c2ccc(Cl)c(SC)c2Cl)c1N [Ex. 165] | – | – |
| 3.93* | N#Cc1nccnc1-n1nc(C(F)(F)F)c(-c2cc(Cl)cc(C(F)(F)F)c2)c1N [Ex. 27] | 100% | – |
| 4.54* | COc1nccnc1-n1nc(C(F)(F)F)c(-c2cc(C(F)(F)F)cc(Cl)n2)c1N [Ex. 55] | – | – |
| 3.54* | CS(=O)(=O)c1nccnc1-n1nc(C(F)(F)F)c(-c2cc(Cl)cc(C(F)(F)F)c2)c1N [Ex. 30] | – | – |
| 4.3* | CCOc1cc(-c2c(C(F)(F)F)nn(-c3nccnc3OC)c2N)cc(Br)c1OCC(F)(F)F [Ex. 140] | 100% | efficacy (Spodoptera frugiperda): 100% |
| 4.14* | COc1nccnc1-n1nc(C(F)(F)F)c(-c2cc(SCC(F)(F)F)c(Cl)cc2Cl)c1N [Ex. 179] | – | – |
| 3.07* | COc1cc(-c2c(C(F)(F)F)nn(-c3nccnc3OC)c2N)ccc1OCC(F)(F)F [Ex. 125] | 100% | efficacy (Tetranychus urticae): 90% |
| 3.69* | COc1nccnc1-n1nc(C(F)(F)F)c(-c2cc(Cl)c(Cl)c([S+]([O-])CC(F)(F)F)c2)c1N (stereo not shown) [Ex. 182] | – | – |
| 4.43* | COc1nccnc1-n1nc(C(F)(F)F)c(-c2cc(Cl)c(Cl)c(SCC(F)(F)F)c2)c1N [Ex. 180] | – | – |
| 4.84* | CC(C)Oc1nccnc1-n1nc(C(F)(F)F)c(-c2cc(Cl)cc(C(F)(F)F)c2)c1N [Ex. 13] | 83% | – |

The remaining lines, values behind:

| SMILES | log P [1, 2] | efficacy (Phaedon cochleariae) | further results |
| --- | --- | --- | --- |
| Nc1c(-c2cc(Cl)cc(C(F)(F)F)c2)c(C(F)(F)F)nn1-c1nccnc1-n1cc(F)cn1 [Ex. 45] | 4.24* | – | – |
| CCOc1nccnc1-n1nc(C(F)(F)F)c(-c2cc(Cl)cc(C(F)(F)F)c2)c1NCc1ccc(OC)cc1 [Ex. 40] | 5.47* | – | – |
| Nc1c(-c2ccc(Cl)cc2)c(C(F)(F)F)nn1-c1nccnc1Cl [Ex. 7] | 3.59* | – | – |
| Nc1c(-c2cc(Cl)cc(C(F)(F)F)c2)c(C(F)(F)F)nn1-c1nccnc1-n1ccnc1 [Ex. 44] | 2.76* | 100% | efficacy (Spodoptera frugiperda): 100% |
| Nc1c(-c2cc(Cl)cc(C(F)(F)F)c2)c(C(F)(F)F)nn1-c1nccnc1-n1cccn1 [Ex. 31] | 3.94* | – | – |
| CCOc1nccnc1-n1nc(C(F)(F)F)c(-c2cc(Cl)cc(C(F)(F)F)c2)c1N(Cc1ccc(OC)cc1)Cc1ccc(OC)cc1 [Ex. 43] | 6.57* | 100% | efficacy (Spodoptera frugiperda): 100% |
| C=C(C)CN(CC(=C)C)c1c(-c2cc(Cl)cc(C(F)(F)F)c2)c(C(F)(F)F)nn1-c1nccnc1OC [compound 104] | 5.22* | – | – |
| CCOc1nccnc1-n1nc(C(F)(F)F)c(-c2cc(Cl)cc(C(F)(F)F)c2)c1NCc1ccc(Cl)cc1 [Ex. 37] | 5.84* | – | – |
| COc1nccnc1-n1nc(C(F)(F)F)c(-c2cc(Cl)cc(C(F)(F)F)c2)c1N(C)C [compound 107, 1-(3-methoxypyrazin-2-yl)-4-[3-chloro-5-(trifluoromethyl)phenyl]-3-(trifluoromethyl)-1H-pyrazole-5-dimethylamine] | – | 83% | chromatographic logP ([1]; reversed-phase HPLC column, * LC-MS, acidic range, pH 2.7, 0.1% aqueous formic acid / acetonitrile, read-out: log P): 5.11 |
| Nc1c(-c2cc(Cl)cc(C(F)(F)F)c2)c(C(F)(F)F)nn1-c1nccnc1C(F)(F)F [Ex. 130] | 4.57* | 100% | efficacy (Spodoptera frugiperda): 100% |
| CCOc1nccnc1-n1nc(C(F)(F)F)c(-c2cc(Cl)cc(C(F)(F)F)c2)c1N(Cc1ccc(Cl)cc1)Cc1ccc(Cl)cc1 [Ex. 36] | – | – | log P [1, 3]: 7.36** |
| Nc1c(-c2cc(Cl)cc(Cl)c2)c(C(F)(F)F)nn1-c1nccnc1Cl [Ex. 56] | 4.16* | – | – |
| COc1nccnc1-n1nc(C(F)(F)F)c(-c2cc(Cl)c(Cl)c(C(F)(F)F)c2)c1N [Ex. 86] | – | 100% | log P [1, 3]: 4.47**; efficacy (Spodoptera frugiperda): 100% |
| C=C(C)CNc1c(-c2cc(Cl)cc(C(F)(F)F)c2)c(C(F)(F)F)nn1-c1nccnc1OC [Ex. 96] | – | – | efficacy (Tetranychus urticae): 100% |
| Nc1c(-c2cc(Cl)cc(C(F)(F)F)c2)c(C(F)(F)F)nn1-c1cncc(Cl)n1 [Ex. 19] | 5.26* | – | – |
| C#CCN(CC#C)c1c(-c2cc(Cl)cc(C(F)(F)F)c2)c(C(F)(F)F)nn1-c1nccnc1OC [Ex. 105] | 4.91* | – | – |
| CCOc1nccnc1-n1nc(C(F)(F)F)c(-c2cc(Cl)cc(C(F)(F)F)c2)c1N(Cc1ccccc1)Cc1ccccc1 [Ex. 34] | 7* | – | – |
| COc1nccnc1-n1nc(C(F)(F)F)c(-c2ccc3c(c2)CCC(C)(C)O3)c1N [Ex. 145] | 3.68* | 100% | – |
| Cc1cnc(C)c(-n2nc(C(F)(F)F)c(-c3cc(Cl)cc(C(F)(F)F)c3)c2N)n1 [Ex. 24] | 4.56* | – | – |
| COc1ccc(CN(Cc2ccc(OC)cc2)c2c(-c3cc(Cl)cc(C(F)(F)F)c3)c(C(F)(F)F)nn2-c2nccnc2OC)cc1 [Ex. 42] | 6.25* | – | – |
| COc1nccnc1-n1nc(C(F)(F)F)c(-c2cc(Cl)cc(C(F)(F)F)c2)c1N(Cc1ccc(Cl)cc1)Cc1ccc(Cl)cc1 [Ex. 38] | 7.11* | – | – |
| COc1nccnc1-n1nc(C(F)(F)F)c(-c2cc(Cl)cc(C(F)(F)F)c2)c1N(Cc1ccccc1)Cc1ccccc1 [Ex. 32] | 6.67* | – | – |
| CCOc1nccnc1-n1nc(C(F)(F)F)c(-c2cc(Cl)cc(C(F)(F)F)c2)c1NCc1ccccc1 [Ex. 35] | 5.62* | – | efficacy (Tetranychus urticae): 90% |
